Test results: patent US12692278B2, “Synthesis methods and compositions of low intermediate and low dichelate intermediate contrast agents” (priority 2021, dated 2026)
Values joined by “and” are separate entries in the source; they are usually repeats but may differ in a detail not shown here. Equal entries are not always repeated.

Key:
Format in all cases: physicochemical
[1] = Metastable intermediates as a function of reaction time
Description: • 1. Heat reactor to 25-30° C. • 2. Charge water with DOTA • 3. Begin stirring (stir unless otherwise indicated, nominal rate 300 rpm) • 4. Charge 10% of the DOTA • 5. Stir until uniformly distributed in the water • 6. If all the DOTA is charged, then go to step 8 • 7. Go to step 4 • 8. Stir 10 min Preparation of Gadolinium: DOTA Complex • 9. Charge 25% by weight of the Gadolinium oxide • 10. Stir until uniformly distributed • 11. If all the Gadolinium oxide is charged then go to step 13 • 12. Go to step 9 • 13. Stir 10 min • 14. Raise temperature to 95+/−2° C. • 15. Stir 3 hrs. • 16. Check clarity • 17. If not clear continue for 1 hr, go to step 16 (this step took about 12 hours) • 18. If clear, continue 1 hr and then cool to 40-45° C. • 19. If precipitate forms, heat to 95+/−2° C. and stir for 1 hr, go to step 16 Verify Gd-Dota is Free of Metastable Intermediates • 20. A standard metastable-free Gd-DOTA reference solution is obtained by taking 5 ml of reactant obtained from steps 1-19 and diluting to a 0.2 mM Gd-DOTA solution. One measures the metastable intermediate content after synthesis for 5, 10, 15, 20, 25, 30, and 35 hours, or until the concentration of the metastable intermediate asymptotes as close to zero as possible. • 21. […] The output from a copper vapor laser tuned to 578.2 nm (Oxford Lasers, Didcot, United Kingdom) is directed through the reactant and the excitation spectrum obtained at 578.2 nm. Baseline is established by directing the laser through the quartz vessel filled with distilled water.
Stoichiometric ratios of gadolinium oxide were reacted with DOTA according to the procedure outlined in Example 1. Measurements were taken (N=1) to conserve volume. The final measurement was performed 5 times.

[2] = Free gadolinium as a function of synthesis time, spectrometric xylenol orange; conditions: for Free Gd, titrated with meglumine to pH 7.0: after 32 hrs synthesis
Description: Once the reference solution is prepared, then product runs can be indexed against this standard. • 23. An improvement over earlier methods involves in-line or batch sample monitoring of metastable intermediate presence. For example, the monitoring can be by Fourier Transform Infrared Spectroscopy, High Performance Liquid Chromatography, Ultra High Performance Liquid Chromatography, or Trans-metalation reaction. The reactant can be titrated with a strong acid (0.1 M HCl) and the free Gd3+ ion quantified by the improved xylenol orange titration according to the present disclosure. The metastable intermediate will release free Gd3+ more quickly than fully complexed Gd-DOTA. The presence of multiple metastable intermediate forms can be detected by dynamic titration over the span of an hour or more, and calculating the Gd3+ ion as a function of time. • 24. In addition, the relative kinetic stability of a Gd-DOTA complex is accessed by exposing the solution to phosphate anions at physiological pH. Even chelates with very high thermodynamic stability constants will equilibrate to form some free chelate and non-chelated gadolinium. Since gadolinium phosphate is insoluble, any non-chelated gadolinium will precipitate as insoluble gadolinium phosphate, and the free Gd3+ ion can be quantified by weighing the precipitate. Verify Complex Formation • 25. Verify absence of free gadolinium using Xylenol orange • 26. If free gadolinium detected, add X DOTA, raise temperature to 95+1-2° C., stir for 1 hr and proceed to step 16 • 27. If not, proceed to step 23 Preparation of Gadoteric Acid Meglumine Solution • 28. Add 90% of the meglumine at 40-45° C. • 29. Sir 10 minutes • 30. Measure pH—in-line probe calibrated to 25° C. (USP) • 31. If pH is >7.5, discard • 32. If pH is between 7.0 and 7.5, then go to step 29 • 33. If pH<than 7.0, add 2% of the Meglumine, go to step 24 • 34. Stir for 1 hr at 40-45° C. • 35. Check solution is clear, if yes proceed to 31, if not repeat 29 Gadoteric Acid Meglumine Solution Filtration • 36. Cool the solution to 20-25° C. • 37. Filter the solution using the carbon filter • 38. Rinse the reactor with 20-25° C. water using ¼ V • 39. Pass rinse through the filter • 40. Repeat rinse steps 33 & 34 for a total of 2 rinses • 41. Place filtrate and rinses back in reactor • 42. Stir at 25-30° C. for 10 min • 43. Measure Free DOTA by HPLC • 44. If Free DOTA is 0.01-0.06% ww proceed to 42 • 45. If Free DOTA<0.01% ww, add 0.03% ww equivalent of DOTA • 46. Stir for ½ hr and go to step 38 • 47. Measure pH—in-line probe calibrated to 25° C. (USP) • 48. If pH is between 7.0 and 7.5, then go to step 45 • 49. If pH<7.0, add meglumine. Stir 10 min. Go to step 42. • 50. Stir ½ hr. • 51. Check solution is clear, if yes proceed to 47, if not repeat 45 Verify Purity • 52. Measure Purity by HPLC • 53. If individual impurity>0.05%, go to step 32 Final API Adjustments • 54. Measure Free DOTA by HPLC • 55. If Free DOTA>0.06% ww, repeat steps 32-42 • 56. If Free DOTA is 0.01-0.06% ww proceed to 55 • 57. If Free DOTA<0.01% ww, add 0.03% ww equivalent of DOTA • 58. Stir ½ hr • 59. Go to Step 49 • 60. Measure pH • 61. If pH is 7.0-7.5, then go to step 53 • 62. If pH<7.0, add Meglumine. Stir 10 min. Go to step 55 Final API Testing • 63. Perform full API testing: Gadolinium content; Meglumine Content; Assay; Water Content; Heavy Metals Free Gadolinium as a Function of Synthesis Time Using the Method of Example 1A.
Free Gadolinium was determined by using the spectrometric xylenol orange technique described in previous studies.
Free Gadolinium as a Function of Synthesis Time Using the Method of Example 1.
Free Gadolinium was determined by using the improved spectrometric xylenol orange technique described in previous studies.

[3] = Effect of solvent (ethanol) on intermediate formation and destabilization of stable complex; conditions: mixed with 10% v-v ethanol, ethanol evaporated 12 hrs
Description: At each time step, samples were mixed with 10% v-v ethanol. The ethanol was driven from the sample by evaporation (heating under vacuum) for 12 hrs. Free Gadolinium was determined by using the spectrometric xylenol orange technique described in previous studies.
At each time step, samples were mixed with 10% v-v ethanol. The ethanol was driven from the sample by evaporation (heating under vacuum) for 12 hrs. Free Gadolinium was determined by using the improved spectrometric xylenol orange technique described in previous studies.

[4] = Feasibility of cation exchange (sodium polystyrene sulfonate), free Gd3+ by xylenol orange; conditions: stoichiometric sodium polystyrene sulfonate, room temperature, N = 5
Description: Feasibility of cation exchange as a method of making Gd-DOTA with low metastable intermediates
Using sodium polystyrene sulfonate, rather than the polymer described above.
Ten samples were stored at room temperature with a stoichiometric amount of sodium polystyrene sulfonate.
Samples were tested using the improved spectrometric xylenol orange method.

[5] = pH controlled synthesis, free Gd versus synthesis time
Description: Here, Example 1A is modified by the addition of gadolinim oxide in its entirety at first and immediately after the introduction of the DOTA, and this procedure is used to produce batch A of Gd-DOTA. Batch B is produced using the following modified procedure.
• 1. Heat reactor to 95° C. • 2. Charge water with all of gadolinium oxide • 3. Stir (stir unless otherwise indicated, nominal rate 300 rpm) until the solution is clear • 4. Add sufficient DOTA to obtain a pH of 4 • 5. When pH is >5 charge sufficient DOTA to reach pH of 4 • 6. Stir until uniformly distributed in the water, and clear • 7. If pH<4, then go to step 9 • 8. Go to step 4 • 9. Divide remaining portion of DOTA into 5 parts • 10. Add 1 part of remaining DOTA • 11. Stir until uniformly distributed in the water, and clear • 12. If DOTA remains to be added go to step 10 • 13. Continue to cook for a total of 12 hours Results

[6] = Feasibility of excess DTPA, free Gd3+ by xylenol orange; conditions: stoichiometric DTPA, room temperature, 24 hours
Description: The metastable intermediate concentration is determined by Example 3, and associated methods described in the present application. A Gd-DOTA synthesis containing metastable intermediates is heated to 95° C. in the presence of a stoichiometric amount of DTPA sufficient to consume all the metastable intermediates. The presence of metastable intermediates can be measured as a function of time. The reaction is continued until a desired metastable intermediate content is obtained. Depending on the amount of free DOTA thus liberated, the free DOTA can be reacted with a positively charged resin, as is known in the art. Alternatively, the free DOTA may serve as a buffer against free Gd3+ formation, as is permitted in some drug formulations. Ten samples were prepared by adding stoichiometric amounts of DTPA to counter the excess Gd3+ and stored at room temperature for 24 hours. Samples were tested using the improved spectrometric xylenol orange method.

O=C([O-])CN1CCN(CC(=O)[O-])CCN(CC(=O)O)CCN(CC(=O)[O-])CC1.[Gd+3] [Example 5, Gd-DOTA]
Metastable Intermediates ([1]; 3 hours of reaction): 28,094 +/− 9.7 ppm | Metastable Intermediates ([1]; 8 hours of reaction): 3,853 +/− 12.4 ppm | Metastable Intermediates ([1]; 24 hours of reaction): 72 +/− 5.0 ppm | Metastable Intermediates ([1]; 32 hours of reaction): 0.8 +/− 1.3 ppm | Metastable Intermediates after titration with meglumine to pH 7.0 ([1]; after 32 hours of reaction, unit not given): 1.2 +/− 3.8

O=C([O-])CN1CCN(CC(=O)[O-])CCN(CC(=O)O)CCN(CC(=O)[O-])CC1.[Gd+3] [Example 1A, Gd-DOTA]
Free Gd, titrated with meglumine to pH 7.0 [2]: 0.77+/−0.92 ppm | Free Gd ([2]; synthesis time 4 hrs): 17,467 +/− 9.4 ppm | Free Gd ([2]; synthesis time 8 hrs): 3,448 +/− 8.9 ppm | Free Gd ([2]; synthesis time 12 hrs): 803 ppm and 803 +/− 8.1 ppm | Free Gd ([2]; synthesis time 16 hrs): 509 +/− 4.2 ppm | Free Gd ([2]; synthesis time 20 hrs): 63.6 +/− 9.7 ppm | Free Gd ([2]; synthesis time 24 hrs): 31.0 +/− 2.1 ppm | Free Gd ([2]; synthesis time 28 hrs): 1.2 +/− 0.72 ppm | Free Gd ([2]; synthesis time 32 hrs): 0.25 +/− 0.67 ppm | Free Gd ([3]; synthesis time 4 hrs): 71,830 ppm | Free Gd ([3]; synthesis time 8 hrs): 7,044 ppm | Free Gd ([3]; synthesis time 12 hrs): 2,146 ppm | Free Gd ([3]; synthesis time 16 hrs): 957 ppm | Free Gd ([3]; synthesis time 20 hrs): 401 ppm | Free Gd ([3]; synthesis time 24 hrs): 147 ppm | Free Gd ([3]; synthesis time 28 hrs): 92 ppm | Free Gd ([3]; synthesis time 32 hrs): 56 (compare to 0.77 without solvents) ppm

Gd-DOTA [Example 6]
Free Gd3+ after samples treated ([4]; 24 hrs): 685 +/− 9.4 | Free Gd3+ after samples treated ([4]; 48 hrs): 292 +/− 15.2 | Free Gd3+ after samples treated ([4]; 96 hrs): 8.9 +/− 8.5

O=C([O-])CN1CCN(CC(=O)[O-])CCN(CC(=O)O)CCN(CC(=O)[O-])CC1.[Gd+3] [Example 1B, Gd-DOTA]
Free Gd, titrated with meglumine to pH 7.0 [2]: 0.77+/−0.92 ppm | Free Gd ([2]; synthesis time 4 hrs): 17,467 +/− 9.4 ppm | Free Gd ([2]; synthesis time 8 hrs): 3,448 +/− 8.9 ppm | Free Gd ([2]; synthesis time 12 hrs): 803 ppm and 803 +/− 8.1 ppm | Free Gd ([2]; synthesis time 16 hrs): 509 +/− 4.2 ppm | Free Gd ([2]; synthesis time 20 hrs): 63.6 +/− 9.7 ppm | Free Gd ([2]; synthesis time 24 hrs): 31.0 +/− 2.1 ppm | Free Gd ([2]; synthesis time 28 hrs): 1.2 +/− 0.72 ppm | Free Gd ([2]; synthesis time 32 hrs): 0.25 +/− 0.67 ppm | Free Gd ([3]; synthesis time 4 hrs): 71,830 ppm | Free Gd ([3]; synthesis time 8 hrs): 7,044 ppm | Free Gd ([3]; synthesis time 12 hrs): 2,146 ppm | Free Gd ([3]; synthesis time 16 hrs): 957 ppm | Free Gd ([3]; synthesis time 20 hrs): 401 ppm | Free Gd ([3]; synthesis time 24 hrs): 147 ppm | Free Gd ([3]; synthesis time 28 hrs): 92 ppm | Free Gd ([3]; synthesis time 32 hrs): 56 (compare to 0.77 without solvents) ppm

O=C([O-])CN1CCN(CC(=O)[O-])CCN(CC(=O)O)CCN(CC(=O)[O-])CC1.[Gd+3] [Batch A, Gd-DOTA]
Free Gd ([5]; synthesis time 4 hrs): 15,036 +/− 12.8 ppm | Free Gd ([5]; synthesis time 8 hrs): 4,947 +/− 9.9 ppm | Free Gd ([5]; synthesis time 12 hrs): 1,792 +/− 10.5 ppm

Gd-DOTA [Example 7]
Gd3+ after samples treated with DTPA, range (upper value, down to undetectable) [6]: ≤ 27.6 ppm | Gd3+ after samples treated with DTPA ([6]; N=5): 14.8+/−11.6 ppm

O=C([O-])CN1CCN(CC(=O)[O-])CCN(CC(=O)O)CCN(CC(=O)[O-])CC1.[Gd+3] [Batch B, Gd-DOTA]
Free Gd ([5]; synthesis time 4 hrs): 19,276 +/− 6.3 ppm | Free Gd ([5]; synthesis time 8 hrs): 2,793 +/− 7.1 ppm | Free Gd ([5]; synthesis time 12 hrs): 377 +/− 5.2 ppm
